# Where two headings read alike, the source gives them in different places.
# Tests used:
# GPR88 KO and WT mice [1] = assay: Phencyclidine-stimulated locomotor hyperactivity; assay type: in vivo
# [2] = molecular target: T1, striatal dopamine D2 receptors (Mus musculus, UniProt P61168); assay: [^3H]spiperone binding to striatal membrane preparations; parameters: species or system mice; conditions: pool of 10
# T1 construct: from tissue; host or cells: mouse striatum (membrane preparation / homogenate)
# Description: Striata from 10 mice (male and female, WT & GPR88 KO) were pooled and homogenized in a motor-driven POLYTRON™ homogenizer (Kinematica AG, Newark, N.J.) at setting six for 10 seconds in 3 mL per 100 mg of wet tissue in 50 mM Tris-HCl buffer, pH 7.4, containing 120 mM NaCl, 5 mM KCl, 1.5 mM CaCl2, 4 mM MgCl2, and 1 mM EDTA. […] The binding of each concentration of radioligand was determined in duplicate. Incubations were carried out at room temperature for 120 minutes. The final concentration of the membrane protein in each binding assay was approximately 70 μg/ml. Butaclamol (+), (10 μM), (Sigma-Aldrich, St. Louis, Mo.) was used to define the nonspecific binding. The incubations were terminated by rapid filtration using a Wallac Tomtec harvester (Waltham, Mass.) and buffer-presoaked glass fiber filter mats (GF/B, Whatman Inc. Florham Park, N.J.). […] The radioactivity of the filters was then counted in a Wallac 1205 scintillation counter (Perkin Elmer Life and Analytical Sciences).
# The estimates of Bmax (the number of available binding receptors) and Kd (the dissociation constant) were calculated by fitting the specific binding data with nonlinear regression using GraphPad PRISM™ data analysis software (GraphPad Software, San Diego, Calif.).
# striatal dopamine = assay: In vivo striatal microdialysis; conditions: 3 mg/kg i.p., male and female GPR88 KO and WT mice, dialysates for 3 hours
# Description: Chromatographic separations were performed using a Capcell PAK™, Strong Cation Exchange columns (5 μm UG80, 1.5×150 mm; Shiseido, Phenomenex, USA). The mobile phase comprised (mM) 13 Na2HPO4, 87 NaH2PO4, 0.1 EDTA and 20% methanol, was adjusted to pH 6 and delivered at 0.2 ml/minutes at 40° C.
# GPR88 KO and WT mice [3] = assay: Amphetamine-stimulated locomotor hyperactivity; assay type: in vivo; conditions: 3 mg/kg i.p., 40-90 min
# Description: The amphetamine-stimulated locomotor hyperactivity assay is another type of assay to model the neuropathological states in schizophrenia, similar to the hyperdopaminergia in the ventral striatum. To measure spontaneous activity and amphetamine-stimulated locomotor hyperactivity, the mice were individually placed in Opto-Veramax-3 monitor cages (Columbus Instruments, Columbus, Ohio) and allowed to habituate for 30 minutes with room light and white noise on. After habituation, each mouse was injected with amphetamine (AMPH, 3 mg/kg) in the intraperitoneum. During the first 30 minutes, the spontaneous activity was recorded every 10 minutes. After amphetamine administration, amphetamine-stimulated locomotor hyperactivity was measured every 10 minutes over a 60 minutes time span by the activity monitor. Accuscan Versamax and Versadat software (Columbus Instruments, Columbus, Ohio) were used to convert the infrared beam breaks into horizontal activity counts. […] Males and females were analyzed separately.
# GPR88 KO and WT mice [4] = assay: Apomorphine-induced climbing and stereotypy; assay type: in vivo
# Description: The GPR88 KO and WT mice were acclimated to a wire cage (cylindrical ½″×½″ mesh with the dimensions of 4½″ d×5½″ h) for at least 2 hours before testing to allow proper habituation. […] (+ present, − absent). Readings were repeated every 5 minutes during a 30-minute test session.
# The behavioral assessment was conducted over three conditions in succession: (1) an evaluation of the response to a subcutaneous vehicle (0.25% TWEEN® 80) injection to establish a baseline; (2) followed by an evaluation of the response to a dose of 0.3 mg/kg subcutaneous apomorphine injection; (3) followed by an evaluation of the response to 1 mg/kg subcutaneous apomorphine injection. Behavioral observation began 5 minutes after each injection. Vehicle was given at T0 minutes with observational assessment from T5-T35 minutes and habituation followed from T35-T65 minutes.
# At T65, the 0.3 mg/kg dose of apomorphine was administered. Behavioral observation for the 0.3 mg/kg dose of apomorphine was from T70-T100, followed by another habituation from T100-T130 minutes.
# At T130 min, the 1.0 mg/kg dose of apomorphine was administered and then the mice were scored from T135-T165 min. For each subject, the climbing scores were totaled for each observational period (maximum=12 per animal). Stereotypy scores were also summed up (maximum=6 per animal). […] Males and females were analyzed separately.
# dopamine D2 receptors = dopamine D2 receptors (Mus musculus, UniProt P61168); conditions: 1 mM dopamine, striatal membranes
# Description: Briefly, striata were collected from the mice (9 GPR88 KO or WT) and frozen at 80° C. until use. The tissue was homogenized in 1:100 volume (wet weight/volume) of ice-cold K-HEPES buffer (20 mM, pH=7.6), containing 7 mM of MgCl2, 100 mM of NaCl, 1 mM of EDTA, and 1 mM of DTT (buffer A), and centrifuged at 45,000 g for 10 minutes at 4° C. The membrane pellet was resuspended in 100 volumes (w/v) of fresh buffer A and re-centrifuged under the same conditions.
# The incubation was started by addition of [^35S]GTPγS (final concentration 0.5 nM) and proceeded for 90 minutes at 30° C. The assay was terminated by filtration through a filter plate (GF/B, Perkin Elmer Life and Analytical Sciences) with five washings of cold buffer A (350 μl). The filter plate was air-dried and the radioactivity content of the filters was counted in 25 μl scintillation cocktail MICROSCINT™ 20 (Perkin Elmer Life and Analytical Sciences) by a Perkin Elmer TopCount NXT scintillation counter.
# GPR88 KO and WT mice [5] = assay: Antipsychotic block of apomorphine-induced climbing and stereotypy; assay type: in vivo
# Description: Observation and scoring for climbing and stereotypy were performed as described in Example 6. […] Males and females were analyzed separately. […] For graphical representation, the data was normalized to the amount of climbing and stereotypy shown by the vehicle treated control group.
# GPR88 KO and WT mice [6] = assay: Haloperidol-induced catalepsy; assay type: in vivo; conditions: 1 mg/kg i.p., 30-120 minutes, male and female mice
# Description: Maintenance of this position was considered catalepsy. […] Males and females were analyzed separately.
# GPR88 KO and WT mice [7] = conditions: 0.54 mg/kg i.p. 30 minutes before testing, PPI averaged across 3 dB levels
# Description: To detect potential phenotypic deficits in the GPR88 knockout mice, they were first evaluated for startle habituation. In brief, mice were tested using the SR-LAB (San Diego Instruments, San Diego, Calif.) system. Each system consists of a ventilated sound attenuated chamber containing a stabilimeter consisting of a Plexiglas cylinder (12.5 cm length, 3.5 cm diameter) mounted on a Plexiglas frame. Acoustic stimuli were delivered through a speaker mounted in the enclosure ceiling, that was 27 cm above the cylinder. Startle responses were transduced by a piezoelectric accelerometer mounted beneath the frame. Output signals were digitized and rectified as consecutive 1-millisecond (msec) readings (a total of 65 were recorded, and startle response was expressed as an averaged response across these samples) on a computer using the San Diego Instrument software. Mice were placed individually in the chamber for a 5-minute acclimation period at a background noise level of 64 dB.
# Prepulse inhibition was measured immediately following the startle sensitivity test. […] Percentage prepulse inhibition was calculated as 100 minus the ratio of the average startle response observed at each prepulse+pulse trial relative to the pulse alone stimulus, times 100. The percentage prepulse at across dB levels was analyzed by repeated-measures ANOVA. […] Males and females were analyzed separately. […]
# [8] = GPR88 KO and WT female mice, 0.3 mg/kg haloperidol
# [9] = male WT mice, 0.54 and 1.0 mg/kg haloperidol
# T1 sequence (P61168 whole entry): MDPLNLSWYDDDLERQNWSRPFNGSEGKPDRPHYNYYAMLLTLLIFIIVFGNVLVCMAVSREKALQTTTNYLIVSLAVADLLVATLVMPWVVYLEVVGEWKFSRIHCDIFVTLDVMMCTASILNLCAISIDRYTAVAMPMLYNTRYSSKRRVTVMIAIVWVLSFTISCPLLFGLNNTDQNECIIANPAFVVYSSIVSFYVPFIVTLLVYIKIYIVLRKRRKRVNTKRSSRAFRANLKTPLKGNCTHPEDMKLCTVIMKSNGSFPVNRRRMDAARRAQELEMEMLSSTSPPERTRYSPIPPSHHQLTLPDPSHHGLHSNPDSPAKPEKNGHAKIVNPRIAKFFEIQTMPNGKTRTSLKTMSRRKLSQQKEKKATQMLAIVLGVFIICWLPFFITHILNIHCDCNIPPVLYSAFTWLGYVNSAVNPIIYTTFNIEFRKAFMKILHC
# dopamine D2 receptors, sequence (P61168 whole entry): as above
compound,measurement,setting,value
"c1ccc(C2(N3CCCCC3)CCCCC2)cc1 [PCP, phencyclidine]",PCP-stimulated locomotor activity,"GPR88 KO and WT mice [1]; female WT and GPR88 KO mice, 1.0 mg/kg",Neither of the genotypes responded
same,PCP-stimulated locomotor activity,"GPR88 KO and WT mice [1]; female WT and GPR88 KO mice, 1.7 mg/kg or 3.0 mg/kg",increased locomotor activity
same,PCP-stimulated locomotor activity,"GPR88 KO and WT mice [1]; male WT and GPR88 KO mice, highest dose 3 mg/kg i.p.",increased locomotor activity
same,PCP-stimulated locomotor activity,"GPR88 KO and WT mice [1]; male WT and GPR88 KO mice, lower doses (1.0, 1.7 mg/kg)",Neither of the genotypes responded
O=C(CCCN1CCC2(CC1)C(=O)NCN2c1ccccc1)c1ccc(F)cc1 [[^3H]spiperone],Bmax (number of available binding receptors),[2]; striatal membranes of GPR88 KO mice,1.83 pmol/mg
same,Bmax (number of available binding receptors),[2]; striatal membranes of WT mice,1.34 pmoles/mg protein
CC(N)Cc1ccccc1 (centres unmarked) [amphetamine],striatal extracellular dopamine after amphetamine,striatal dopamine,significant and equal increase in dopamine
same,locomotor activity after amphetamine administration,GPR88 KO and WT mice [3]; GPR88 KO male mice,significant increase in activity
same,locomotor activity after amphetamine administration,GPR88 KO and WT mice [3]; female mice,significant increase in activity
CN1CCc2cccc3c2[C@H]1Cc1ccc(O)c(O)c1-3 [apomorphine],"apomorphine-induced climbing scores, dose effect","GPR88 KO and WT mice [4]; female GPR88 KO and WT mice, 1 mg/kg s.c.",the most climbing
same,"apomorphine-induced stereotypy scores, dose effect","GPR88 KO and WT mice [4]; male GPR88 KO and WT mice, 1 mg/kg s.c.",maximal stereotypy
same,"apomorphine-induced climbing scores, dose effect","GPR88 KO and WT mice [4]; male GPR88 KO and WT mice, vehicle, 0.3 and 1 mg/kg s.c.",climbing increasing with the dose
NCCc1ccc(O)c(O)c1 [dopamine],stimulation of [^35S]GTPγS binding in GPR88 KO mice relative to WT mice,dopamine D2 receptors,twice
O=C(CCCN1CCC(O)(c2ccc(Cl)cc2)CC1)c1ccc(F)cc1 [haloperidol],block of apomorphine-induced climbing,GPR88 KO and WT mice [5]; [8],full block of climbing
same,block of apomorphine-induced stereotypy,GPR88 KO and WT mice [5]; [8],full block of stereotypy
same,"minimal effective dose, apomorphine-induced climbing and stereotypy assay (summary)",GPR88 KO and WT mice [5]; GPR88 KO male mice,0.54 mg/kg
same,"minimal effective dose, apomorphine-induced climbing and stereotypy assay (summary)",GPR88 KO and WT mice [5]; WT male mice,< 0.3 mg/kg
same,block of apomorphine-induced climbing,"GPR88 KO and WT mice [5]; male GPR88 KO mice, 1.0 mg/kg haloperidol",full block of climbing
same,block of apomorphine-induced climbing,GPR88 KO and WT mice [5]; [9],full block of climbing
same,block of apomorphine-induced stereotypy,GPR88 KO and WT mice [5]; [9],full block of stereotypy
same,"catalepsy (percentage of maximum possible catalepsy), GPR88 KO versus WT",GPR88 KO and WT mice [6],equivalent levels of catalepsy
Cc1nc2n(c(=O)c1CCN1CCC(c3noc4cc(F)ccc34)CC1)CCCC2 [risperidone],"percentage prepulse inhibition (PPI), treatment versus vehicle",GPR88 KO and WT mice [7]; male GPR88 KO mice,increasing PPI over untreated
same,"percentage prepulse inhibition (PPI), treatment versus vehicle",GPR88 KO and WT mice [7]; male WT mice,increasing PPI over untreated

# From patent publication US20080040819A1, “Methods of identifying agents for treatment of schizophrenia and related disorders” (Wyeth, priority 2006, published 2008)
